This passage reports Activity, MTD and IC50 results from ChEMBL document CHEMBL4339181, “Kinase and Histone Deacetylase Hybrid Inhibitors for Cancer Therapy” (J Med Chem, 2019).

Each structure is given as a SMILES string.

Series [1] is described as follows: Toxicity in patient with advanced solid tumor assessed as serum AST elevation administered as 1 hr iv infusion for 5 consecutive days every 2 weeks relative to control. It counts as organism-based. The following applies: human, in vivo.
Series [2] in a line: Toxicity in patient with advanced solid tumor assessed as dry skin administered as 1 hr iv infusion for 5 consecutive days every 2 weeks relative to control. Conditions: human, in vivo; call rule not given here. Format: organism-based.
Series [3] is described as follows: Toxicity in patient with advanced solid tumor administered as 1 hr iv infusion for 5 consecutive days every 2 weeks. It counts as organism-based. Conditions: human, in vivo.
The next series has as its system HepG2. The series is described as follows: Antitumor activity against human HepG2 cells xenografted in nu/nu CD-1 mouse assessed as tumor regression at 120 mg/kg, iv administered daily relative to control. Format: functional. A general note: A xenograft is tissue or cells of one species grown in another, often human tumour cells in immunodeficient mice.
A short description of series [4]: Toxicity in patient with advanced solid tumor assessed as transient reversible nausea administered as 1 hr iv infusion for 5 consecutive days every 2 weeks relative to control. Format: organism-based. Conditions: human, in vivo.
Series [5] can be described thus: Toxicity in patient with advanced solid tumor assessed as fatigue administered as 1 hr iv infusion for 5 consecutive days every 2 weeks relative to control. It counts as organism-based. Conditions: human, in vivo.
The nature of series [6]: Toxicity in patient with advanced solid tumor assessed as serum creatinine elevation administered as 1 hr iv infusion for 5 consecutive days every 2 weeks relative to control. Format: organism-based. Conditions: human, in vivo.
The target in a further series is T1, Histone deacetylase 8 (Homo sapiens, UniProt Q9BY41).
T1 sequence (Q9BY41 whole entry): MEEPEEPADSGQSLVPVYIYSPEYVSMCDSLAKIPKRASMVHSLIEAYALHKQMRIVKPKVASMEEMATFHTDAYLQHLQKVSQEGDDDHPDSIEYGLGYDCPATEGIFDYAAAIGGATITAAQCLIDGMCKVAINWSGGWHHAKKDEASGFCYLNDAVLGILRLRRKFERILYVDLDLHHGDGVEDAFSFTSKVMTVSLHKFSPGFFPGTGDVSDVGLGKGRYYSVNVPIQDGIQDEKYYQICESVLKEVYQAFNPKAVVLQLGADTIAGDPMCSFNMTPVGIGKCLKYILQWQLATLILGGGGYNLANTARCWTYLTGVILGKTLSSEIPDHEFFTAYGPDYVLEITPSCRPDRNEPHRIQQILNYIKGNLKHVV

A further series deals with Histone deacetylase 5 (Homo sapiens, UniProt Q9UQL6). The series is described as follows: Inhibition of HDAC5 (unknown origin).
Sequence of Histone deacetylase 5 (Q9UQL6 whole entry): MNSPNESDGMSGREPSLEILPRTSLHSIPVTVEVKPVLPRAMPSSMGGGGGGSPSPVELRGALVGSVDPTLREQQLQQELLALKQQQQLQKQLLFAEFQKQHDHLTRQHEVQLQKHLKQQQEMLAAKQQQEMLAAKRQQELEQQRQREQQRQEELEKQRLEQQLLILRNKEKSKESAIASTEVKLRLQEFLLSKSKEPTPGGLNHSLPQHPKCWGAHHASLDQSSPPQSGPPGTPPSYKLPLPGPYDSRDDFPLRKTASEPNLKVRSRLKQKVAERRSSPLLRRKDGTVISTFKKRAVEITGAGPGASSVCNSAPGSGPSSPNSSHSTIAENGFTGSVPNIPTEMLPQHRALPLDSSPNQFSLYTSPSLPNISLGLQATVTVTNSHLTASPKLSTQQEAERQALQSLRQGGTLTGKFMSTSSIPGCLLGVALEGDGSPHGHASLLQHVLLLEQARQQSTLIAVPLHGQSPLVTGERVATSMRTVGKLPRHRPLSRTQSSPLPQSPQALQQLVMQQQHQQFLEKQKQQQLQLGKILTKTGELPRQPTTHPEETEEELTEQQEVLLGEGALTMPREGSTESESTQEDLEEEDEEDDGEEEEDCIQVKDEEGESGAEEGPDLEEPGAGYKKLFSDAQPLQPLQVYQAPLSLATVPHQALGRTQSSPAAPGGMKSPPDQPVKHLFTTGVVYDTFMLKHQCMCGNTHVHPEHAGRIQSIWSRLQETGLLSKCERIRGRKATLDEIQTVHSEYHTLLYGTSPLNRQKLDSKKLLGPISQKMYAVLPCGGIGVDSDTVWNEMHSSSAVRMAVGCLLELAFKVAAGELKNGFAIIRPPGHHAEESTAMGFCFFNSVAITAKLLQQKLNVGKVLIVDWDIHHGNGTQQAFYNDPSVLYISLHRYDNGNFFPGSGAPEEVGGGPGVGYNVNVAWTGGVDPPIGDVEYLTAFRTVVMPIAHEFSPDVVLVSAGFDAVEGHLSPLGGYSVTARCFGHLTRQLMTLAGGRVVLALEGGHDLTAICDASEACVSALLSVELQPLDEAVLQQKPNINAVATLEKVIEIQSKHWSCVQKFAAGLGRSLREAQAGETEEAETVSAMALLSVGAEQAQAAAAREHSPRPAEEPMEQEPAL
The next series deals with Histone deacetylase 9 (Homo sapiens, UniProt Q9UKV0). Briefly: Inhibition of HDAC9 (unknown origin).
Sequence of Histone deacetylase 9 (Q9UKV0 whole entry): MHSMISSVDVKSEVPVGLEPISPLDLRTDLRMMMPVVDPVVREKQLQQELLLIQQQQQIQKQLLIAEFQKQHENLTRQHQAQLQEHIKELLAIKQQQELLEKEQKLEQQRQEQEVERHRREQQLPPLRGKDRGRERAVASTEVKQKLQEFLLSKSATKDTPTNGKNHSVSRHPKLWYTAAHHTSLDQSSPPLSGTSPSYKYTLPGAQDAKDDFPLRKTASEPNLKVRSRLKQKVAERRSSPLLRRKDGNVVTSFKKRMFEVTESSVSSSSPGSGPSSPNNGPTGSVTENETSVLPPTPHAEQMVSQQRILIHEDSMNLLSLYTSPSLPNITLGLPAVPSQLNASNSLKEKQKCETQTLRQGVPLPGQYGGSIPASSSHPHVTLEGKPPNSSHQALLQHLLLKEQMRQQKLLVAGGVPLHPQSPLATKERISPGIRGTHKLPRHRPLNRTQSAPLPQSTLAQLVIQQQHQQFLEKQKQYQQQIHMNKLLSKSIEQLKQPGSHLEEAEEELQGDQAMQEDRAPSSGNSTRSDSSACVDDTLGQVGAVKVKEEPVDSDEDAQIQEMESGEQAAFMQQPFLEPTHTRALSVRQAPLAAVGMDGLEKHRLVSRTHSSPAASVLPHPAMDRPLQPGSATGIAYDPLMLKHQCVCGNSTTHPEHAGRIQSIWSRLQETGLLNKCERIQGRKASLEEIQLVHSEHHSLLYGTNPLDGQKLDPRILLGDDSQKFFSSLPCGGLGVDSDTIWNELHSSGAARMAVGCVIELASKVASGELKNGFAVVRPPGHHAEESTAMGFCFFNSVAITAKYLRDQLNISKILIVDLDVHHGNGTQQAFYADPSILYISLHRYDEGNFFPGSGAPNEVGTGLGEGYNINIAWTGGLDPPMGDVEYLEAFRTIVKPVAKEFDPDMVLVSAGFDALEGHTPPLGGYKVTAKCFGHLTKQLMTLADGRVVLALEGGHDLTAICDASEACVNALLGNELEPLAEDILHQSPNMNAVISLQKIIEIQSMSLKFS
The target of series [7] is T2, Protein deacetylase HDAC6 (Homo sapiens, UniProt Q9UBN7).
T2 sequence (Q9UBN7 whole entry): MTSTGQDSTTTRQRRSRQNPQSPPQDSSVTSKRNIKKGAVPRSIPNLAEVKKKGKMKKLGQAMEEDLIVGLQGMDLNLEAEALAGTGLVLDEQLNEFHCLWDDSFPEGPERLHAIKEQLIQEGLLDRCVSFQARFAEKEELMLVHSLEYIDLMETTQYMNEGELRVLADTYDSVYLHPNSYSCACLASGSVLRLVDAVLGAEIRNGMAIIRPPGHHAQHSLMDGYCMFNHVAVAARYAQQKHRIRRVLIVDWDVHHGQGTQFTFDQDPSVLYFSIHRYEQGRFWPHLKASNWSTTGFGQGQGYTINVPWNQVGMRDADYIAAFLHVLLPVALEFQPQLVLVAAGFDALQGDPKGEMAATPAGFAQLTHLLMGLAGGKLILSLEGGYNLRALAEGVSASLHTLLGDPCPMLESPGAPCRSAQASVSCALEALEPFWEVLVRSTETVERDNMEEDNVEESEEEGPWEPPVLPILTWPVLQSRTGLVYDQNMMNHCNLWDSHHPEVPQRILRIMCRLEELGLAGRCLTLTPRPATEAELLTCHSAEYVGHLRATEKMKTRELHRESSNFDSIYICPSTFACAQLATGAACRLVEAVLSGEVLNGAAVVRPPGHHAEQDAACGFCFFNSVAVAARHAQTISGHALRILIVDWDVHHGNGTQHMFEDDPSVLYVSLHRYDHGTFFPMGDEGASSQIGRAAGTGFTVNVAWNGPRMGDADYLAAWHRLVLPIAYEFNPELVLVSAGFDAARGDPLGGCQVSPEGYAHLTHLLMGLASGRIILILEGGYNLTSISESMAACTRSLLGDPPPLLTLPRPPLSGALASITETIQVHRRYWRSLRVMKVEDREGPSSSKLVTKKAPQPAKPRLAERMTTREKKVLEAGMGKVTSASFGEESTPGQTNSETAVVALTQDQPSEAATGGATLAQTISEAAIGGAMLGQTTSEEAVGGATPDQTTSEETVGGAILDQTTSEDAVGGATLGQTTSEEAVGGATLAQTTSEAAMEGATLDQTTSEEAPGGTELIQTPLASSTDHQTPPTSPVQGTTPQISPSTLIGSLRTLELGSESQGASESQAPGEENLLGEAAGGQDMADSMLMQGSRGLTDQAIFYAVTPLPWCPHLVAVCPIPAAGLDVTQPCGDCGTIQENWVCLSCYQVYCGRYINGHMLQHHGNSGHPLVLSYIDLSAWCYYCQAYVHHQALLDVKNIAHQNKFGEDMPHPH
Description: Inhibition of HDAC6 (unknown origin)

Description for Histone deacetylase 8: Inhibition of HDAC8 (unknown origin)

Consider `C#Cc1cccc(Nc2ncnc3cc(OC)c(OCCCCCCC(=O)NO)cc23)c1` [CUDC-101], for which the Activity in [1] is reported as 12%; in series [2], 16%; in the series with HepG2 it was 30%; in [4], 24%; in [5] it was 24%; in series [6] it was 12%. Moreover, the MTD in series [3] was 275 mg/m2.
For `O=C(CCCCCCC(=O)Nc1ccccc1)NO` [VORINOSTAT], the IC50 entry (on Histone deacetylase 8; against Histone deacetylase 5; on Histone deacetylase 9; in [7]) was “Not Active” throughout.
